Assay results reported in PubChem BioAssay AID1918993 (Molecular Pharmacology Branch, DTP, NCI, 2023).

System: 233499-124-R-J3-PDC complex spheroid growth
Test: Anticancer human tumor 233499-124-R-J3-PDC patient-derived colon adenocarcinoma cell line growth inhibition [AhR]
Settings: for IC50: curve of first compound; for viability, T/C: stronger effect = lower value
Outline: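 Spheroids combined tumor cells with HUVEC endothelial cells and human MSCs as stroma. AhR antagonists were paired with standard or investigational drugs, each dosed in half-log steps down from near clinical Cmax, or from 10 microM where Cmax was unknown.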

[1] = second compound 0.1 µM, first compound 0.000949 µM
[2] = second compound 0.1 µM, first compound 0.003 µM
[3] = second compound 0.1 µM, first compound 0.00949 µM
[4] = second compound 0.1 µM, first compound 0.03 µM
[5] = second compound 0.1 µM, first compound 0.0949 µM
[6] = second compound 0.1 µM, first compound 0.3 µM
[7] = second compound 0.316 µM, first compound 0.000949 µM
[8] = second compound 0.316 µM, first compound 0.003 µM
[9] = second compound 0.316 µM, first compound 0.00949 µM
[10] = second compound 0.316 µM, first compound 0.03 µM
[11] = second compound 0.316 µM, first compound 0.0949 µM
[12] = second compound 0.316 µM, first compound 0.3 µM
[13] = second compound 1 µM, first compound 0.000949 µM
[14] = second compound 1 µM, first compound 0.003 µM
[15] = second compound 1 µM, first compound 0.00949 µM
[16] = second compound 1 µM, first compound 0.03 µM
[17] = second compound 1 µM, first compound 0.0949 µM
[18] = second compound 1 µM, first compound 0.3 µM
[19] = second compound 3.16 µM, first compound 0.000949 µM
[20] = second compound 3.16 µM, first compound 0.003 µM
[21] = second compound 3.16 µM, first compound 0.00949 µM
[22] = second compound 3.16 µM, first compound 0.03 µM
[23] = second compound 3.16 µM, first compound 0.0949 µM
[24] = second compound 3.16 µM, first compound 0.3 µM
[25] = second compound 10 µM, first compound 0.000949 µM
[26] = second compound 10 µM, first compound 0.003 µM
[27] = second compound 10 µM, first compound 0.00949 µM
[28] = second compound 10 µM, first compound 0.03 µM
[29] = second compound 10 µM, first compound 0.0949 µM
[30] = second compound 10 µM, first compound 0.3 µM
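Note: spheroids exposed to agents for seven days before reading.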

CCc1c2c(nc3ccc(O)cc13)-c1cc3c(c(=O)n1C2)COC(=O)[C@]3(O)CC + Cc1cncc(-c2nc(NCCc3c[nH]c4ccccc34)c3ncn(C(C)C)c3n2)c1
IC50 (second compound 0.1 µM): > 0.3 µM
IC50 (second compound 0.316 µM): > 0.3 µM
IC50 (second compound 1 µM): > 0.3 µM
IC50 (second compound 3.16 µM): > 0.3 µM
IC50 (second compound 10 µM): < 0.000949 µM
viability, T/C [1]: 97%
viability, T/C [2]: 99.5%
viability, T/C [3]: 77.6%
viability, T/C [4]: 77.5%
viability, T/C [5]: 71.1%
viability, T/C [6]: 91.8%
viability, T/C [7]: 101%
viability, T/C [8]: 89.9%
viability, T/C [9]: 71.9%
viability, T/C [10]: 67.2%
viability, T/C [11]: 66.4%
viability, T/C [12]: 67.6%
viability, T/C [13]: 86.4%
viability, T/C [14]: 89.1%
viability, T/C [15]: 70%
viability, T/C [16]: 81%
viability, T/C [17]: 94.3%
viability, T/C [18]: 64.3%
viability, T/C [19]: 90%
viability, T/C [20]: 96.2%
viability, T/C [21]: 72.3%
viability, T/C [22]: 86.1%
viability, T/C [23]: 70%
viability, T/C [24]: 65.3%
viability, T/C [25]: 10.4%
viability, T/C [26]: 13.7%
viability, T/C [27]: 21.5%
viability, T/C [28]: 17%
viability, T/C [29]: 9.13%
viability, T/C [30]: 7.22%

CCN(c1cc(-c2ccc(CN3CCOCC3)cc2)cc(C(=O)NCc2c(C)cc(C)[nH]c2=O)c1C)C1CCOCC1 + CC(CO)NC(=O)c1cc(-c2ccc(Cl)cc2)nn(-c2cnn(C)c2)c1=O
IC50 (second compound 0.1 µM): > 3 µM
IC50 (second compound 0.316 µM): > 3 µM
IC50 (second compound 1 µM): > 3 µM
IC50 (second compound 3.16 µM): > 3 µM
IC50 (second compound 10 µM): > 3 µM
viability, T/C [3]: 100%
viability, T/C [4]: 86.8%
viability, T/C [5]: 88.2%
viability, T/C [6]: 82.9%
viability, T/C (second compound 0.1 µM, first compound 0.949 µM): 93.5%
viability, T/C (second compound 0.1 µM, first compound 3 µM): 94.3%
viability, T/C [9]: 103%
viability, T/C [10]: 98.6%
viability, T/C [11]: 94.9%
viability, T/C [12]: 85.6%
viability, T/C (second compound 0.316 µM, first compound 0.949 µM): 99.9%
viability, T/C (second compound 0.316 µM, first compound 3 µM): 83.8%
viability, T/C [15]: 95.6%
viability, T/C [16]: 96.1%
viability, T/C [17]: 91%
viability, T/C [18]: 95.4%
viability, T/C (second compound 1 µM, first compound 0.949 µM): 88.4%
viability, T/C (second compound 1 µM, first compound 3 µM): 90.2%
viability, T/C [21]: 88%
viability, T/C [22]: 82%
viability, T/C [23]: 85.6%
viability, T/C [24]: 91.9%
viability, T/C (second compound 3.16 µM, first compound 0.949 µM): 98.7%
viability, T/C (second compound 3.16 µM, first compound 3 µM): 86.6%
viability, T/C [27]: 80.9%
viability, T/C [28]: 77.2%
viability, T/C [29]: 79.7%
viability, T/C [30]: 82.5%
viability, T/C (second compound 10 µM, first compound 0.949 µM): 73.5%
viability, T/C (second compound 10 µM, first compound 3 µM): 83.1%

CC(C)CC(NC(=O)C(Cc1ccccc1)NC(=O)c1cnccn1)B(O)O (stereo not given) + CC(CO)NC(=O)c1cc(-c2ccc(Cl)cc2)nn(-c2cnn(C)c2)c1=O
IC50 (second compound 0.1 µM): 0.00847 µM
IC50 (second compound 0.316 µM): 0.00801 µM
IC50 (second compound 1 µM): 0.00687 µM
IC50 (second compound 3.16 µM): 0.00612 µM
IC50 (second compound 10 µM): 0.00496 µM
viability, T/C [1]: 92.4%
viability, T/C [2]: 102%
viability, T/C [3]: 44.9%
viability, T/C [4]: 0.09%
viability, T/C [5]: 0.09%
viability, T/C [6]: 0.2%
viability, T/C [7]: 92.1%
viability, T/C [8]: 93.2%
viability, T/C [9]: 42.6%
viability, T/C [10]: 0.13%
viability, T/C [11]: 0.04%
viability, T/C [12]: 0.12%
viability, T/C [13]: 102%
viability, T/C [14]: 100%
viability, T/C [15]: 30.6%
viability, T/C [16]: 0.08%
viability, T/C [17]: 0.05%
viability, T/C [18]: 0.12%
viability, T/C [19]: 84.5%
viability, T/C [20]: 88.8%
viability, T/C [21]: 27.5%
viability, T/C [22]: 0.1%
viability, T/C [23]: 0.13%
viability, T/C [24]: 0.12%
viability, T/C [25]: 66.5%
viability, T/C [26]: 84.2%
viability, T/C [27]: 17.2%
viability, T/C [28]: 0.18%
viability, T/C [29]: 0.12%
viability, T/C [30]: 0.18%

O=C(C=Cc1cccc(S(=O)(=O)Nc2ccccc2)c1)NO + Cc1cncc(-c2nc(NCCc3c[nH]c4ccccc34)c3ncn(C(C)C)c3n2)c1
IC50 (second compound 0.1 µM): 5.27 µM
IC50 (second compound 0.316 µM): 5.76 µM
IC50 (second compound 1 µM): 5.46 µM
IC50 (second compound 3.16 µM): 3.1 µM
IC50 (second compound 10 µM): < 0.0316 µM
viability, T/C (second compound 0.1 µM, first compound 0.0316 µM): 103%
viability, T/C (second compound 0.1 µM, first compound 0.1 µM): 96.8%
viability, T/C (second compound 0.1 µM, first compound 0.316 µM): 111%
viability, T/C (second compound 0.1 µM, first compound 1 µM): 122%
viability, T/C (second compound 0.1 µM, first compound 3.16 µM): 82%
viability, T/C (second compound 0.1 µM, first compound 10 µM): 9.95%
viability, T/C (second compound 0.316 µM, first compound 0.0316 µM): 84.6%
viability, T/C (second compound 0.316 µM, first compound 0.1 µM): 98.7%
viability, T/C (second compound 0.316 µM, first compound 0.316 µM): 94.4%
viability, T/C (second compound 0.316 µM, first compound 1 µM): 105%
viability, T/C (second compound 0.316 µM, first compound 3.16 µM): 107%
viability, T/C (second compound 0.316 µM, first compound 10 µM): 5.83%
viability, T/C (second compound 1 µM, first compound 0.0316 µM): 84.6%
viability, T/C (second compound 1 µM, first compound 0.1 µM): 97.7%
viability, T/C (second compound 1 µM, first compound 0.316 µM): 88.8%
viability, T/C (second compound 1 µM, first compound 1 µM): 103%
viability, T/C (second compound 1 µM, first compound 3.16 µM): 95.5%
viability, T/C (second compound 1 µM, first compound 10 µM): 1.53%
viability, T/C (second compound 3.16 µM, first compound 0.0316 µM): 78.6%
viability, T/C (second compound 3.16 µM, first compound 0.1 µM): 78.2%
viability, T/C (second compound 3.16 µM, first compound 0.316 µM): 80.8%
viability, T/C (second compound 3.16 µM, first compound 1 µM): 93.2%
viability, T/C (second compound 3.16 µM, first compound 3.16 µM): 49.4%
viability, T/C (second compound 3.16 µM, first compound 10 µM): 3.18%
viability, T/C (second compound 10 µM, first compound 0.0316 µM): 7.06%
viability, T/C (second compound 10 µM, first compound 0.1 µM): 6.48%
viability, T/C (second compound 10 µM, first compound 0.316 µM): 7.01%
viability, T/C (second compound 10 µM, first compound 1 µM): 2.38%
viability, T/C (second compound 10 µM, first compound 3.16 µM): 1.78%
viability, T/C (second compound 10 µM, first compound 10 µM): 0.38%
